Measured values published in article PMC8380825 (Journal of molecular biology, 2021).
Where no end group is shown, it is not given here.

How the values were obtained:
[1] = biological target: T1, NPR-1 (Caenorhabditis elegans, UniProt Q18534); assay: cAMP reporter gene assay; type: cell-based, C. elegans; conditions: wild type NPR-1
T1 sequence (Q18534 1-457): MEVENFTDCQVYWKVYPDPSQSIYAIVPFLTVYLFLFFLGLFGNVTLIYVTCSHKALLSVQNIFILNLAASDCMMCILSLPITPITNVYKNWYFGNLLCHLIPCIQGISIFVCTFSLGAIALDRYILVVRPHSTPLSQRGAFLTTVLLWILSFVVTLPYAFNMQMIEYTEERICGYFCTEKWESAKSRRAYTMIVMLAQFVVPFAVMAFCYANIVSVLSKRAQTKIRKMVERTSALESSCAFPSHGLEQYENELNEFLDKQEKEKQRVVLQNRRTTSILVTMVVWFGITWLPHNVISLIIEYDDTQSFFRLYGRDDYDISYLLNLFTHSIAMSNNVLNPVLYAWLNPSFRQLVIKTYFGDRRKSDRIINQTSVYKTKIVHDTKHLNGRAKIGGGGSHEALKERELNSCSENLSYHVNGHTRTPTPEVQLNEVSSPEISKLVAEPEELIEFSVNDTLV

[2] = biological target: T2, NPR-11 (Caenorhabditis elegans, UniProt Q18179); assay: cAMP reporter gene assay; type: cell-based, C. elegans
T2 sequence (Q18179 1-402): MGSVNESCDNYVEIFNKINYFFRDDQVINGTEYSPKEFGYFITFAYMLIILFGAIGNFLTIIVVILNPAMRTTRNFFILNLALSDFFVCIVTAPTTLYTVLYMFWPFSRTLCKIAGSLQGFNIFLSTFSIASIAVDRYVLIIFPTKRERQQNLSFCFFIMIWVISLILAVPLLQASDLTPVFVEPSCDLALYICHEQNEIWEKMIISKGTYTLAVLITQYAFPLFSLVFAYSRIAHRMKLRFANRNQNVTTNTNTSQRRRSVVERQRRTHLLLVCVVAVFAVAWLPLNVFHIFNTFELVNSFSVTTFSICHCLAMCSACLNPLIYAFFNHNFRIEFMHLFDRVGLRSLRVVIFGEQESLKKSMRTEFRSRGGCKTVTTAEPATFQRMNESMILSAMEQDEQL

[3] = biological target: NPR-11 mutants (Caenorhabditis elegans, UniProt Q18179, Q119A); assay: cAMP reporter gene assay; type: cell-based, C. elegans
[4] = biological target: T2, NPR-11; assay: NanoBRET displacement binding assay, Nluc-NPR-11 wild type; design: species or system C. elegans
[5] = biological target: Q^3.32A variant of NPR-11 (Caenorhabditis elegans, UniProt Q18179, Q119A); assay: NanoBRET displacement binding assay, Nluc-NPR-11 Q^3.32A variant; design: species or system C. elegans
[6] = biological target: NPR-1 mutants (Caenorhabditis elegans, UniProt Q18534, D303A/D304A/E301A); assay: cAMP reporter gene assay; type: cell-based, C. elegans
[7] = biological target: NPR-1 mutants (Caenorhabditis elegans, UniProt Q18534, D315A); assay: cAMP reporter gene assay; type: cell-based, C. elegans; conditions: NPR-1 D^7.26A mutant
[8] = biological target: NPR-1 mutants (Caenorhabditis elegans, UniProt Q18534, D316A); assay: cAMP reporter gene assay; type: cell-based, C. elegans; conditions: NPR-1 D^7.27A mutant
[9] = biological target: NPR-1 mutants (Caenorhabditis elegans, UniProt Q18534, E180A); assay: cAMP reporter gene assay; type: cell-based, C. elegans
[10] = biological target: NPR-1 mutants (Caenorhabditis elegans, UniProt Q18534, E180D); assay: cAMP reporter gene assay; type: cell-based, C. elegans
[11] = biological target: NPR-1 mutants (Caenorhabditis elegans, UniProt Q18534, E180Q); assay: cAMP reporter gene assay; type: cell-based, C. elegans
[12] = biological target: NPR-1 mutants (Caenorhabditis elegans, UniProt Q18534, E301A); assay: cAMP reporter gene assay; type: cell-based, C. elegans
[13] = biological target: NPR-1 mutants (Caenorhabditis elegans, UniProt Q18534, E301D); assay: cAMP reporter gene assay; type: cell-based, C. elegans
[14] = system: NPR-1 mutants; assay: cAMP reporter gene assay; type: cell-based, C. elegans; conditions: mutation of T^2.61 and Q^3.32 of NPR-1
[15] = biological target: NPR-11 mutants (Caenorhabditis elegans, UniProt Q18179, E196A); assay: cAMP reporter gene assay; type: cell-based, C. elegans
[16] = biological target: NPR-11 mutants (Caenorhabditis elegans, UniProt Q18179, E196D); assay: cAMP reporter gene assay; type: cell-based, C. elegans; conditions: NPR-11 E^5.23D
[17] = biological target: NPR-11 mutants (Caenorhabditis elegans, UniProt Q18179, E196Q); assay: cAMP reporter gene assay; type: cell-based, C. elegans
[18] = biological target: NPR-11 mutants (Caenorhabditis elegans, UniProt Q18179, E199A); assay: cAMP reporter gene assay; type: cell-based, C. elegans; conditions: NPR-11 E^5.26A
[19] = biological target: NPR-11 mutants (Caenorhabditis elegans, UniProt Q18179, F307A); assay: cAMP reporter gene assay; type: cell-based, C. elegans; conditions: NPR-11 F^7.35A
[20] = biological target: NPR-11 mutants (Caenorhabditis elegans, UniProt Q18179, Q119H); assay: cAMP reporter gene assay; type: cell-based, C. elegans; conditions: NPR-11 Q^3.32H
[21] = biological target: NPR-11 mutants (Caenorhabditis elegans, UniProt Q18179, T96A); assay: cAMP reporter gene assay; type: cell-based, C. elegans; conditions: NPR-11 T^2.61A
[22] = system: NPR-11 mutants; assay: cAMP reporter gene assay; type: cell-based, C. elegans
[23] = biological target: T1, NPR-1; conditions: read-out: EC50 at NPR-1; ref [13]; cited from earlier work

Sequence of NPR-11 mutants (Caenorhabditis elegans, UniProt Q18179, Q119A) (Q18179 whole entry Q119A): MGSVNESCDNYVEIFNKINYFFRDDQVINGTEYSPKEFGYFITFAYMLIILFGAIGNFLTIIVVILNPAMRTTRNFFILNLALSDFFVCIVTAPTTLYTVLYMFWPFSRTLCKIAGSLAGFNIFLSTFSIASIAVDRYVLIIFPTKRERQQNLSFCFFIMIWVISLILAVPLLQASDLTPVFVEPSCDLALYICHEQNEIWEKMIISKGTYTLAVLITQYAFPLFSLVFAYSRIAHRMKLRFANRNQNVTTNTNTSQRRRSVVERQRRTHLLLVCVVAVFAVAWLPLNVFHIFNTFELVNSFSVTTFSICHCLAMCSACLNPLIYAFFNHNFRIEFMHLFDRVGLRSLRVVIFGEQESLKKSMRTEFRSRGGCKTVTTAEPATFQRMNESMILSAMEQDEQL
Sequence of NPR-1 mutants (Caenorhabditis elegans, UniProt Q18534, E180D) (Q18534 whole entry E180D): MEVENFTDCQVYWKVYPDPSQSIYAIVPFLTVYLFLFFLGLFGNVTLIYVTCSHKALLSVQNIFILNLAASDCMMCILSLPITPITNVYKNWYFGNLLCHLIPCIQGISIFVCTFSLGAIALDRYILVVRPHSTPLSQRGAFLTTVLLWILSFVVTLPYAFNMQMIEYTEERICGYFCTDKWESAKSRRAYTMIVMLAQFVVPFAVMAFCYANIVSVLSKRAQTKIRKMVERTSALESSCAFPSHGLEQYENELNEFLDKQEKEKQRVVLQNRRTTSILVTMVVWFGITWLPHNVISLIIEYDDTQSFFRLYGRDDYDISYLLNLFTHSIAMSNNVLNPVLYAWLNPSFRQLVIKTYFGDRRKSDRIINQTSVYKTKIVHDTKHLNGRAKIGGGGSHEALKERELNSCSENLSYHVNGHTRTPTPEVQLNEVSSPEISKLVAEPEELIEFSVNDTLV
Sequence of NPR-1 mutants (Caenorhabditis elegans, UniProt Q18534, E301A) (Q18534 whole entry E301A): as the sequence (Q18534 whole entry E180D) above, with D180E, E301A counted along it
Sequence of NPR-11 mutants (Caenorhabditis elegans, UniProt Q18179, E196A) (Q18179 whole entry E196A): as the sequence (Q18179 whole entry Q119A) above, with A119Q, E196A counted along it
Sequence of NPR-1 mutants (Caenorhabditis elegans, UniProt Q18534, D315A) (Q18534 whole entry D315A): as the sequence (Q18534 whole entry E180D) above, with D180E, D315A counted along it
Sequence of NPR-1 mutants (Caenorhabditis elegans, UniProt Q18534, E180A) (Q18534 whole entry E180A): as the sequence (Q18534 whole entry E180D) above, with D180A counted along it
Sequence of NPR-1 mutants (Caenorhabditis elegans, UniProt Q18534, D303A/D304A/E301A) (Q18534 whole entry E301A/D303A/D304A): as the sequence (Q18534 whole entry E180D) above, with D180E, E301A, D303A, D304A counted along it
Sequence of NPR-11 mutants (Caenorhabditis elegans, UniProt Q18179, Q119H) (Q18179 whole entry Q119H): as the sequence (Q18179 whole entry Q119A) above, with A119H counted along it
Sequence of NPR-11 mutants (Caenorhabditis elegans, UniProt Q18179, E199A) (Q18179 whole entry E199A): as the sequence (Q18179 whole entry Q119A) above, with A119Q, E199A counted along it
Sequence of NPR-11 mutants (Caenorhabditis elegans, UniProt Q18179, F307A) (Q18179 whole entry F307A): as the sequence (Q18179 whole entry Q119A) above, with A119Q, F307A counted along it
Sequence of NPR-11 mutants (Caenorhabditis elegans, UniProt Q18179, E196Q) (Q18179 whole entry E196Q): as the sequence (Q18179 whole entry Q119A) above, with A119Q, E196Q counted along it
Sequence of NPR-11 mutants (Caenorhabditis elegans, UniProt Q18179, T96A) (Q18179 whole entry T96A): as the sequence (Q18179 whole entry Q119A) above, with T96A, A119Q counted along it
Sequence of NPR-1 mutants (Caenorhabditis elegans, UniProt Q18534, E301D) (Q18534 whole entry E301D): as the sequence (Q18534 whole entry E180D) above, with D180E, E301D counted along it
Sequence of NPR-11 mutants (Caenorhabditis elegans, UniProt Q18179, E196D) (Q18179 whole entry E196D): as the sequence (Q18179 whole entry Q119A) above, with A119Q, E196D counted along it
Sequence of NPR-1 mutants (Caenorhabditis elegans, UniProt Q18534, D316A) (Q18534 whole entry D316A): as the sequence (Q18534 whole entry E180D) above, with D180E, D316A counted along it
Sequence of Q^3.32A variant of NPR-11 (Q18179 whole entry Q119A): as the sequence (Q18179 whole entry Q119A) above
Sequence of NPR-1 mutants (Caenorhabditis elegans, UniProt Q18534, E180Q) (Q18534 whole entry E180Q): as the sequence (Q18534 whole entry E180D) above, with D180Q counted along it

Substance: [L^7A]-FLP-21: FLP-21 variant, L^7 to alanine (GLGPRPARF-NH2)
- EC50 shift (loss of potency) relative to wild type FLP-21 [1]: 497 fold
- EC50 shift relative to wild type FLP-21 ([2]; wild type NPR-11): 10 fold
- EC50 shift compared to FLP-21 at the same receptor mutant ([3]; NPR-11 Q^3.32A): 300 fold
- reduction of Ki relative to FLP-21 [4]: less than 10 fold
- reduction of Ki compared to FLP-21 [5]: 100 fold

Substance: GLGPRPLRF-NH2 [FLP-21]
- EC50 [6]: > 10000 nM
- EC50 shift relative to wild type receptor [7]: < 5 fold
- EC50 shift relative to wild type receptor [8]: < 5 fold
- EC50 [9]: > 10000 nM
- EC50 [10]: 495 nM
- EC50 shift relative to wild type receptor ([10]; NPR-1 E^5.27D): > 600 fold
- EC50 [11]: > 10000 nM
- EC50 [12]: 20 nM
- EC50 shift relative to wild type NPR-1 ([12]; NPR-1 E^6.59A): 25 fold
- EC50 [13]: 0.13 nM
- decrease of receptor activation relative to wild type receptor [14]: > 30 fold
- reduced potency at NPR-11 compared to NPR-1 ([2]; EC50 NPR-11 versus EC50 NPR-1): 64 fold
- EC50 [15]: > 10000 nM
- decreased potency relative to wild type receptor [16]: > 70 fold
- EC50 [17]: > 10000 nM
- receptor activation in words [18]: inactive
- receptor activation in words [19]: inactive
- EC50 [3]: 0.1 nM
- EC50 as fold of the wild type receptor ([3]; NPR-11 Q^3.32A): 0.002 fold
- gain of function relative to wild type receptor ([3]; NPR-11 Q^3.32A): > 500 fold
- receptor activation in words [20]: did not affect activation
- EC50 shift relative to wild type receptor [21]: 4 fold
- receptor activation in words ([22]; NPR-11 E^5.26 mutated to glutamine or aspartate): behaved like wild type
- EC50 shift relative to wild type receptor ([22]; NPR-11 F^7.35 to histidine or leucine): > 200 fold
- receptor activation in words ([22]; NPR-11 T^6.59 and N^6.58 alanine mutants): wild type-like activities

Substance: RGPSGPLRF-NH2 [FLP-15–2]
- EC50 [23]: 22 nM
